Measured values taken from patent US10125134B2 (Mirati Therapeutics, Inc., priority 2016, dated 2018).
Counter-ions that a name gives are not always drawn. Like-named read-outs stand apart in the source and are kept apart here.

Key:
KRas G12C = KRas G12C (Homo sapiens, UniProt P01116, C118S/C51S/C80L/G12C); test: KRas G12C Modification Assay (LCMS detection of covalent adduct); format: binding; details: normalized percent of control; tested at 5 μM concentration for 3 hours
Method in brief: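 Cys-light KRas G12C mutant protein incubated with compound in K-Ras assay buffer, reactions quenched at set time points with 25 mM acetic acid and analysed by intact-protein LC/MS on a C-3 column. Deconvoluted mass heights expressed as percent of control (POC) relative to compound-free protein.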

[1] = test system: NCI-H358 cells (express KRas G12C), Phospho-ERK; test: Cellular inhibition of KRas G12C: Phospho-ERK in NCI-H358 cells; format: cell-based; details: Homo sapiens, pERK(Thr202/Tyr204) normalized with GAPDH, NCI-H358 cells, 3 hours, read-out: IC50
Method in brief: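 IC50 derived by 4-parameter fit of GAPDH-normalized pERK(Thr202/Tyr204) signal, as percent of DMSO control. Signal came from in-cell immunodetection with infrared secondaries after 3 h compound exposure of KRas G12C NCI-H358 cells at 0.5% DMSO.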

SMILES | POC (KRas G12C) | IC50 ([1]; NCI-H358, 3 h) | IC50 [1]
C=CC(=O)N1CCN(c2nc(OCCCCN(C)C)nc3c2CCN(c2cc(O)cc4ccccc24)C3)CC1 [Example 40, 1-(4-(2-(4-(dimethylamino)butoxy)-7-(3-hydroxynaphthalen-1-yl)-5,6,7,8-tetrahydropyrido[3,4-d]pyrimidin-4-yl)piperazin-1-yl)prop-2-en-1-one] | C (“C”>50% POC) | 0.0001 to 1 µM | –
C=CC(=O)N1CCN(c2nc(OCCCN3CCOCC3)nc3c2CCN(c2cc(O)cc(C4CC4)c2)C3)CC1 [Example 41, 1-(4-(7-(3-cyclopropyl-5-hydroxyphenyl)-2-(3-morpholinopropoxy)-5,6,7,8-tetrahydropyrido[3,4-d]pyrimidin-4-yl)piperazin-1-yl)prop-2-en-1-one trifluoroacetate] | A (“A”≤25% POC) | – | > 1 µM
C=CC(=O)N1CCN(c2nc(OCCCN3CCOCC3)nc3c2CCN(c2cc(O)ccc2F)C3)CC1 [Example 42, 1-(4-(7-(2-fluoro-5-hydroxyphenyl)-2-(3-morpholinopropoxy)-5,6,7,8-tetrahydropyrido[3,4-d]pyrimidin-4-yl)piperazin-1-yl)prop-2-en-1-one] | A (“A”≤25% POC) | – | > 1 µM
C=CC(=O)N1CCN(c2nc(OCCCN3CCOCC3)nc3c2CCN(c2c(C)ccc4[nH]ncc24)C3)CC1 [Example 44, 1-(4-(7-(5-methyl-1H-indazol-4-yl)-2-(3-morpholinopropoxy)-5,6,7,8-tetrahydropyrido[3,4-d]pyrimidin-4-yl)piperazin-1-yl)prop-2-en-1-one] | C (“C”>50% POC) | – | > 1 µM
C=CC(=O)N1[C@@H]2CC[C@H]1CN(c1nc(OC(C)CN(C)C)nc3c1CCN(c1cc(O)cc4ccccc14)C3)C2 (stereo partly drawn) [Example 45, 1-((1R,5S)-3-(2-((1-(dimethylamino)propan-2-yl)oxy)-7-(3-hydroxynaphthalen-1-yl)-5,6,7,8-tetrahydropyrido[3,4-d]pyrimidin-4-yl)-3,8-diazabicyclo[3.2.1]octan-8-yl)prop-2-en-1-one] | A (“A”≤25% POC) | – | > 1 µM
C=CC(=O)N1C[C@H]2CC[C@@H](C1)N2c1nc(OC(C)CN(C)C)nc2c1CCN(c1cc(O)cc3ccccc13)C2 (stereo partly drawn) [Example 46, 1-((1R,5S)-8-(2-((1-(dimethylamino)propan-2-yl)oxy)-7-(3-hydroxynaphthalen-1-yl)-5,6,7,8-tetrahydropyrido[3,4-d]pyrimidin-4-yl)-3,8-diazabicyclo[3.2.1]octan-3-yl)prop-2-en-1-one] | A (“A”≤25% POC) | – | > 1 µM
C=CC(=O)N1CCN(c2nc(OCCN3CCC(F)C3)nc3c2CCN(c2cc(O)cc4ccccc24)C3)CC1 (stereo not shown) [Example 49, 1-(4-(2-(2-(3-fluoropyrrolidin-1-yl)ethoxy)-7-(3-hydroxynaphthalen-1-yl)-5,6,7,8-tetrahydropyrido[3,4-d]pyrimidin-4-yl)piperazin-1-yl)prop-2-en-1-one] | B (“B”>25% POC−≤50% POC) | > 1 µM | –
C=CC(=O)N1CCN(c2nc(OCCN3CCCCC3)nc3c2CCN(c2cc(O)cc4ccccc24)C3)CC1 [Example 52, 1-[4-[7-(3-hydroxy-1-naphthyl)-2-[2-(1-piperidyl)ethoxy]-6,8-dihydro-5H-pyrido[3,4-d]pyrimidin-4-yl]piperazin-1-yl]prop-2-en-1-one] | C (“C”>50% POC) | 0.0001 to 1 µM | –
C=CC(=O)N1CCN(c2ncnc3c2CCN(c2nc(N)cc4ccccc24)C3)CC1 [Example 54, 1-[4-[7-(3-amino-1-isoquinolyl)-6,8-dihydro-5H-pyrido[3,4-d]pyrimidin-4-yl]piperazin-1-yl]prop-2-en-1-one] | A (“A”≤25% POC) | – | > 1 µM
C=CC(=O)N1CCN(c2nc(OC[C@@H]3CCC(=O)N3)nc3c2CCN(c2cc(O)cc4ccccc24)C3)CC1 [Example 57, (S)-5-(((4-(4-acryloylpiperazin-1-yl)-7-(3-hydroxynaphthalen-1-yl)-5,6,7,8-tetrahydropyrido[3,4-d]pyrimidin-2-yl)oxy)methyl)pyrrolidin-2-one] | C (“C”>50% POC) | > 1 µM | –
C=CC(=O)N1CCN(c2nc(OCCNC(C)=O)nc3c2CCN(c2cc(O)cc4ccccc24)C3)CC1 [Example 59, N-(2-((4-(4-acryloylpiperazin-1-yl)-7-(3-hydroxynaphthalen-1-yl)-5,6,7,8-tetrahydropyrido[3,4-d]pyrimidin-2-yl)oxy)ethyl)acetamide] | C (“C”>50% POC) | > 1 µM | –

Further lines, with some results ahead:

POC (KRas G12C) | SMILES | IC50 ([1]; NCI-H358, 3 h) | IC50 [1]
C (“C”>50% POC) | C=CC(=O)N1CCN(c2nc(OCCCN3CCOCC3)nc3c2CCN(c2cc(O)cc4cc(C)ccc24)C3)CC1 [Example 43, 1-(4-(7-(3-hydroxy-6-methylnaphthalen-1-yl)-2-(3-morpholinopropoxy)-5,6,7,8-tetrahydropyrido[3,4-d]pyrimidin-4-yl)piperazin-1-yl)prop-2-en-1-one] | – | > 1 µM
C (“C”>50% POC) | C=CC(=O)N1CCN(c2nc(OCCN(C)C)nc3c2CCN(c2cc(O)cc4ccccc24)C3C)CC1 (stereo not shown) [Example 47, 1-(4-(2-(2-(dimethylamino)ethoxy)-7-(3-hydroxynaphthalen-1-yl)-8-methyl-5,6,7,8-tetrahydropyrido[3,4-d]pyrimidin-4-yl)piperazin-1-yl)prop-2-en-1-one] | – | > 1 µM
C (“C”>50% POC) | C=CC(=O)N1CCN(c2nc(OCCN(C)C)nc3c2CC(C)N(c2cc(O)cc4ccccc24)C3)CC1 (stereo not shown) [Example 48, 1-(4-(2-(2-(dimethylamino)ethoxy)-7-(3-hydroxynaphthalen-1-yl)-6-methyl-5,6,7,8-tetrahydropyrido[3,4-d]pyrimidin-4-yl)piperazin-1-yl)prop-2-en-1-one trifluoroacetate] | – | > 1 µM
C (“C”>50% POC) | C=CC(=O)N1CCN(c2nc(OCCN(C)C)nc3c2CCN(c2cc(O)cc4ccccc24)C3)CC1CO (stereo not shown) [Example 50, 1-(4-(2-(2-(dimethylamino)ethoxy)-7-(3-hydroxynaphthalen-1-yl)-5,6,7,8-tetrahydropyrido[3,4-d]pyrimidin-4-yl)-2-(hydroxymethyl)piperazin-1-yl)prop-2-en-1-one] | > 1 µM | –
A (“A”≤25% POC) | C=CC(=O)N1CCN(c2nc(OCCN(C)C)nc3c2CCN(c2cc(O)cc4ccccc24)C3)CC1C(=O)N(C)C (stereo not shown) [Example 51, 1-acryloyl-4-(2-(2-(dimethylamino)ethoxy)-7-(3-hydroxynaphthalen-1-yl)-5,6,7,8-tetrahydropyrido[3,4-d]pyrimidin-4-yl)-N,N-dimethylpiperazine-2-carboxamide] | – | > 1 µM
C (“C”>50% POC) | C=CC(=O)N1CCN(c2nc(OCCN(C)C)nc3c2CCN(c2cc(O)cc4ccccc24)C3)C(CO)C1 (stereo not shown) [Example 53, 1-(4-(2-(2-(dimethylamino)ethoxy)-7-(3-hydroxynaphthalen-1-yl)-5,6,7,8-tetrahydropyrido[3,4-d]pyrimidin-4-yl)-3-(hydroxymethyl)piperazin-1-yl)prop-2-en-1-one] | > 1 µM | –
C (“C”>50% POC) | C=CC(=O)N1CCN(c2nc(OCC(CO)N(C)C)nc3c2CCN(c2cc(O)cc4ccccc24)C3)CC1 (stereo not shown) [Example 55, 1-(4-(2-(2-(dimethylamino)-3-hydroxypropoxy)-7-(3-hydroxynaphthalen-1-yl)-5,6,7,8-tetrahydropyrido[3,4-d]pyrimidin-4-yl)piperazin-1-yl)prop-2-en-1-one] | 0.0001 to 1 µM | –
C (“C”>50% POC) | C=CC(=O)N1CCN(c2nc(O[C@H](C)CN3CCOCC3)nc3c2CCN(c2cc(O)cc4ccccc24)C3)CC1 [Example 56, (R)-1-(4-(7-(3-hydroxynaphthalen-1-yl)-2-((1-morpholinopropan-2-yl)oxy)-5,6,7,8-tetrahydropyrido[3,4-d]pyrimidin-4-yl)piperazin-1-yl)prop-2-en-1-one] | 0.0001 to 1 µM | –
C (“C”>50% POC) | C=CC(=O)N1CCN(c2nc(OC[C@H]3CCC(=O)N3)nc3c2CCN(c2cc(O)cc4ccccc24)C3)CC1 [Example 58, (R)-5-(((4-(4-acryloylpiperazin-1-yl)-7-(3-hydroxynaphthalen-1-yl)-5,6,7,8-tetrahydropyrido[3,4-d]pyrimidin-2-yl)oxy)methyl)pyrrolidin-2-one] | > 1 µM | –
C (“C”>50% POC) | C=CC(=O)N1CCN(c2nc(O[C@H](CC)CN(C)C)nc3c2CCN(c2cc(O)cc4ccccc24)C3)CC1 [Example 60, (R)-1-(4-(2-((1-(dimethylamino)butan-2-yl)oxy)-7-(3-hydroxynaphthalen-1-yl)-5,6,7,8-tetrahydropyrido[3,4-d]pyrimidin-4-yl)piperazin-1-yl)prop-2-en-1-one] | > 1 µM | –
C (“C”>50% POC) | C=CC(=O)N1CCN(c2nc(O[C@H](C)CN3CC[C@@H](OC)C3)nc3c2CCN(c2cc(O)cc4ccccc24)C3)CC1 [Example 63, 1-(4-(7-(3-hydroxynaphthalen-1-yl)-2-(((R)-1-((R)-3-methoxypyrrolidin-1-yl)propan-2-yl)oxy)-5,6,7,8-tetrahydropyrido[3,4-d]pyrimidin-4-yl)piperazin-1-yl)prop-2-en-1-one] | > 1 µM | –
C (“C”>50% POC) | C=CC(=O)N1CCN(c2nc(O[C@H](C)CN3CC[C@H](OC)C3)nc3c2CCN(c2cc(O)cc4ccccc24)C3)CC1 [Example 64, 1-(4-(7-(3-hydroxynaphthalen-1-yl)-2-(((R)-1-((S)-3-methoxypyrrolidin-1-yl)propan-2-yl)oxy)-5,6,7,8-tetrahydropyrido[3,4-d]pyrimidin-4-yl)piperazin-1-yl)prop-2-en-1-one] | 0.0001 to 1 µM | –
